Measurements from patent US20030118985A1, “Mouse monoclonal antibody (5-21-3) to human immunodeficiency virus gp41 protein” (priority 1997, published 2003).

What was measured:
[1] = system: binding of antibody 5-21-3 to rp41; experiment: Binding inhibition assay: peptides inhibit binding of 5-21-3 to rp41; set-up: species or system HIV I; details: for Molar Ratio at 50% inhibition of 5-21-3 binding: mean of two experiments, 0.4 pmol 5-21-3 IgG per well
Experimental: Additional evidence for the conformationl nature of the 5-21-3 epitope was obtained using binding inhibition studies, in which synthetic peptides were ranked for their ability to inhibit binding of 5-21-3 to rp41. First, the Fab dimer of an anti-gp41 monoclonal antibody was prepared by conventional methods (Goding et al., supra). Then 100 ul of a 1 mg/ml solution of the Fab dimer in bicarbonate buffer (pH 9.6) was coated onto Immulon II microtiter plates for 1 hr at 37° C. After washing with PBS containing 0.05% Tween 20, the plates were overcoated with 200 ul of 1.0% ovalbumin in bicarbonate buffer (pH 9.6) for 1 hr at 30° C. After washing, 100 ul of rp41 enriched E. coli lysate (as described in Example 3), diluted appropriately in PBS containing 0.05% Tween 20, were allowed to bind to the Fab dimer for 2 hr at 30° C. The plates were washed and stored at 4° C.
Intact monoclonal antibody 5-21-3 IgG (purified from tissue culture fluid supporting growth of the cloned cell line 5-21-3) was titrated against the bound rp41 on the plate, and an antibody concentration was selected which yielded an A492 value of 2.0-3.0. Usually, 0.4 pmol (0.06 ug) of 5-21-3 IgG per microtiter well was employed in these assays. Stock solutions of 5-21-3 IgG were prepared in PBS containing 0.1% Triton X-100 and 0.1% SDS. Dilutions of synthetic peptides were made in the same buffer (SDS was included in these experiments to keep peptides soluble at high concentrations).
The binding inhibition assay was performed by combining 0.15 ml of 1.2 ug/ml 5-21-3 antibody stock solution with 0.15 ml of peptide at a selected peptide concentration, and incubating the reaction mixture 1 hr at room temp. Then 0.1 ml aliquots of each reaction mixture were added to each of two wells in the microtiter tray. After a 1 hr incubation at room temp., the plates were washed, and HRPO conjugated Goat anti-mouse IgG Fc was added for 1 hr at room temp. The plates were washed, and addition of OPD for color development identified the relative amounts of 5-21-3 bound to rp41 in the microtiter wells. The reaction was stopped by addition of 100 ul of 1N H2SO4, and the plates were read on a Dynatech II microtiter plate reader.

[2] = system: monoclonal antibody 5-21-3; experiment: Immunoprecipitation of [125I] synthetic peptides by 5-21-3; assay type: binding, mouse; details: for SPECIFIC PRECIPITATION (CPM) by 5-21-3 / x-fold increase of specific over non-specific precipitation, 5-21-3: 5-21-3 10 μg/0.2 ml, second antibody precipitation; for SPECIFIC PRECIPITATION (CPM) by 5-21-3: PBS, 0.1% Triton X-100, 1.0% BSA, carrier serum; for x-fold increase of specific over non-specific precipitation, 5-21-3: vs normal mouse IgG
Experimental: (§1) Synthetic peptides were radiolabeled with ^125I (Amersham) by the chloramine T method (N. M. Hunter, “Radioimmunoassay” in D. M. Weir, Ed., Handbook of Experimental Immunology, [Blackwell Scientific Publications, 1973]). Generally, 2-6 ul of 100 mCi/ml ^125I were added to 10-50 ug of peptide in PBS, pH 7.4. Approximately 10 ug of freshly prepared (1 mg/ml in PBS) chloramine T were added to the mixture maintained at 4° C. After 5 min., [^125I]peptide was separated from free ^125I by passage of the reaction mixture through a 3 ml (bed volume) column of Biogel P-6 or P-2, as required. Fractions (200 ul each) containing [^125I]peptide were pooled and diluted into PBS containing 20% fetal calf serum. Rough estimations of ^125I cpm bound to peptide were made by acid precipitation. An aliquot of labeled peptide was diluted into 1 ml of ice cold 50% trichloroacetic acid (TCA) overlaying a 0.45 um filter (made of mixed cellulose esters) set on a scintered glass filter connected to a vacuum apparatus. Precipitated protein was fixed onto the filter by application of vacuum, and filters were washed with ice-cold 50% TCA. Background cpm adhering non-specifically to the filter were estimated by repeating the procedure using a non-precipitating buffer. Amounts of peptide, ^125I, chloramine T, and composition of column eluting buffer were subject to change depending on conditions required to maintain solubility of each peptide.
(§2) Synthetic peptides radiolabeled with ^125I were diluted into PBS (pH 7.4) containing 0.1% Triton X-100 (or other detergents where indicated) and 1.0% BSA, to yield approximately 2.5-5×10^5 acid-precipitable cpm per 0.1 ml. Purified monoclonal IgG 5-21-3 and 10-15-63 were employed in the assay. Monoclonal antibodies were diluted into PBS containing 0.1% Triton X-100 (or other detergents where indicated), 1.0% BSA, and 2% normal mouse serum as a carrier immunoglobulin. Immune rabbit serum (anti-P58-130) was diluted appropriately into the same buffer except that normal rabbit serum (2%) was substituted for normal mouse serum as the carrier immunoglobulin. A reaction mixture comprising 0.1 ml [^125I] peptide (5×10^5 cpm/0.1 ml) and 0.1 ml diluted antibody was incubated 1 hr at 40° C., followed by addition of 0.1 ml of a precipitating antibody, either goat anti-mouse IgG, or goat anti-rabbit IgG, corresponding to the primary antibody. The reaction mixture was incubated 1 hr at 40° C. and then overnight at 4° C. […] Precipitation assays employing Protein A-Sepharose as the precipitating reagent were performed in a similar manner, except that normal sera were omitted from the reaction mixtures.

[3] = system: monoclonal antibody 10-15-63; experiment: Immunoprecipitation of [125I] synthetic peptides by 10-15-63; assay type: binding, mouse; details: for SPECIFIC PRECIPITATION (CPM) by 10-15-63 / x-fold increase of specific over non-specific precipitation, 10-15-63: 10-15-63 10 μg/0.2 ml, second antibody precipitation; for SPECIFIC PRECIPITATION (CPM) by 10-15-63: PBS, 0.1% Triton X-100, 1.0% BSA, carrier serum; for x-fold increase of specific over non-specific precipitation, 10-15-63: vs normal mouse IgG
Experimental: as §1, §2

[4] = system: Rabbit (R) anti-P58-130 serum; experiment: Immunoprecipitation of [125I] synthetic peptides by rabbit anti-P58-130 serum; assay type: binding; details: rabbit anti-P58-130 serum 20 ul/0.2 ml, second antibody precipitation; for x-fold increase of specific over non-specific precipitation, RαP58-130: vs normal rabbit serum
Experimental: as §1, §2

[5] = system: monoclonal antibody 5-21-3; experiment: Immuno-dot blot of synthetic peptides with 5-21-3; assay type: binding, mouse; details: 25 ug/ml 5-21-3; mild washing procedures
Source text: The western Blot procedure described in Example 1 was employed for development of immuno-dot blots using synthetic peptides, except that synthetic peptides were fixed to nitrocellulose by direct application using Drummond lambda pipettes, and air dried prior to blocking with 20% fetal calf serum in PBS (pH 7.4).

Row | Sequence | inhibition of 5-21-3 binding to rp41, in words [1] | Molar Ratio at 50% inhibition of 5-21-3 binding [1] | binding of [125I]peptide by 5-21-3 (immunoprecipitation), in words [2] | SPECIFIC PRECIPITATION (CPM) by 5-21-3 [2] | x-fold increase of specific over non-specific precipitation, 5-21-3 [2] | SPECIFIC PRECIPITATION (CPM) by 10-15-63 [3] | x-fold increase of specific over non-specific precipitation, 10-15-63 [3] | SPECIFIC PRECIPITATION (CPM) by RαP58-130 [4] | x-fold increase of specific over non-specific precipitation, RαP58-130 [4] | further results
1 | YNYTSLIHSLIEESQNQQEKNEQELLELDKWANLWNWL [P126-162] | roughly equivalent to that of P121-154 | 1,585 pmoles peptide/pmoles 5-21-3 | recognized by 5-21-3 | 11,540 CPM | (3.4) x-fold | 0 CPM | (<1) x-fold | 0 CPM | (<1) x-fold | SPECIFIC PRECIPITATION (CPM) ([2]; 5-21-3 1.0 μg/ml final): 0 CPM; x-fold increase of specific over non-specific precipitation ([2]; 5-21-3 1.0 μg/ml final): (0) x-fold; SPECIFIC PRECIPITATION (CPM) ([2]; 5-21-3 10.0 μg/ml final): 295 CPM; x-fold increase of specific over non-specific precipitation ([2]; 5-21-3 10.0 μg/ml final): (1.1) x-fold; SPECIFIC PRECIPITATION (CPM) ([2]; 5-21-3 100.0 μg/ml final): 4,924 CPM; x-fold increase of specific over non-specific precipitation ([2]; 5-21-3 100.0 μg/ml final): (1.6) x-fold; SPECIFIC PRECIPITATION (CPM) ([3]; 10-15-63 1.0 μg/ml final): 0 CPM; x-fold increase of specific over non-specific precipitation ([3]; 10-15-63 1.0 μg/ml final): (0) x-fold; SPECIFIC PRECIPITATION (CPM) ([3]; 10-15-63 10.0 μg/ml final): 0 CPM; x-fold increase of specific over non-specific precipitation ([3]; 10-15-63 10.0 μg/ml final): (0) x-fold; SPECIFIC PRECIPITATION (CPM) ([3]; 10-15-63 100.0 μg/ml final): 0 CPM; x-fold increase of specific over non-specific precipitation ([3]; 10-15-63 100.0 μg/ml final): (0) x-fold; immuno-dot blot reactivity with 5-21-3 [5]: additional 5-21-3 reactivity was observed
2 | IHSLIEESQNQQEKNEQELLELDKWANLWNWLNITNWLWYIKLFI [P131-175] | definite inhibitor | 18,815 pmoles peptide/pmoles 5-21-3 | Little or no binding activity | 317 CPM | (1.6) x-fold | 188 CPM | (1.4) x-fold | 0 CPM | (<1) x-fold | –
